Measurements: patent US11572379B2, “Monomaleimide-functionalized platinum compounds for cancer therapy” (Medizinische Universität Wien, priority 2015, dated 2023)
“Also recorded” adds a separate entry of the source.

How the values were obtained:
CT-26 colon cancer cells = assay: CT-26 colon cancer in vivo assay for anticancer activity; parameters: species or system Balb/c mice
Procedure: CT-26 colon cancer cells (5×10^5 in serum-free medium) were injected subcutaneously into the right flank of Balb/c mice. Animals were treated with the indicated oxaliplatin-releasing drugs at concentrations equimolar to 9 mg/kg oxaliplatin (i.v.; KP2156, KP2299 (compound 12), and KP2541 (compound 22) were dissolved in 0.9% NaCl solution, KP2260 (compound 11) was dissolved in 10% propylene glycol/0.9% NaCl and oxaliplatin was dissolved in 5% glucose solution according to the clinical protocol) twice a week (Mondays and Thursdays). Also in case of KP2552 (mixture of compounds 23 and 24, with the 4-methyl-1,2-cyclohexanediamine moiety) the solvent and application scheme of oxaliplatin was used. In case of cisplatin-releasing prodrugs KP2372 (compound 8) and KP2540 (compound 30), a dose equimolar to 3 mg/kg cisplatin was applied twice a week. For the carboplatin derivative KP2551 (compound 20) a dose equimolar to 12 mg/kg carboplatin was applied. The complexes were dissolved in 0.9% NaCl, while for the platinum(II) drugs 5% glucose solution was used according to the clinical protocol. Animals were controlled for distress development every day and tumor size was assessed regularly by caliper measurement. Tumor volume was calculated using the formula: (length×width^2).

[1] = tested on: L1210 murine leukemia cells; assay: L1210 leukemia in vivo assay (survival); conditions: L1210 i.p., male DBA/2J×Balb/c SCID F1 mice
Procedure: L1210 murine leukemia cells (1×10^5) were injected intraperitoneally in a volume of 0.2 mL into female DBA/2J (cisplatin-releasing drugs) or male DBA/2J×Balb/c SCID F1 mice (oxaliplatin-releasing drugs). Compounds (see FIG. 4; dissolved as described above) were administered intraperitoneally at drug concentrations equimolar to 3 mg/kg cisplatin and 9 mg/kg oxaliplatin, respectively, on day 1, 5, and 9. Toxicity was monitored by daily observation of animals and registration of their body weight. Therapeutic efficacy of the drug candidate was monitored by recording the lengths of survival of experimental mice compared to untreated control animals.

B16 melanoma cells = assay: B16 melanoma in vivo assay for anticancer activity; conditions: male C57/B6JRj mice, i.v. twice a week, equimolar to 9 mg/kg oxaliplatin
Procedure: B16 melanoma cells (1×10^5 in serum-free medium) were injected subcutaneously into the right flank of male C57/B6JRj mice. Animals were treated with KP2299 at concentrations equimolar to 9 mg/kg oxaliplatin (i.v.; dissolved in 0.9% NaCl solution) twice a week. Oxaliplatin was dissolved in 5% glucose solution according to the clinical protocol. Animals were controlled for distress development every day and tumor size was assessed regularly by caliper measurement. Tumor volume was calculated using the formula: (length×width^2).

Aqueous solubility = conditions: compared to KP2260
[2] = RP-HPLC stability studies: hydrolytic stability in buffered aqueous solution at different pH values; assay type: physicochemical; conditions: 0.5 mM, 20° C.; for stability (decrease of the compound peak area): over 24 h; for hydrolysis: 24 hours
Procedure: The stability of the compounds of the invention in aqueous solutions at different pH values was evaluated by incubation of compound 12 (KP2299) in different buffers and subsequent monitoring of the decrease of the compound peak area with the UV/VIS detector of a RP-HPLC system at 250 nm. Therefore, compound 12 was dissolved at a concentration of 0.5 mM in either 100 mM phosphate buffer pH=7.4, 100 mM sodium acetate buffer pH=6.3, 100 mM sodium acetate buffer pH=5.3 or 100 mM sodium acetate buffer pH=4.3 and incubated at 20° C. for 24 hours. All the measurements were carried out on an Ultimate 3000 RS system (Thermo Scientific, Waltham, Mass., USA) controlled by Chromeleon 7.2 SR4 software using an Acquity BEH C18 reversed phase column (50×3.0 mm, 1.7 μm particle size) from Waters (Milford, USA). Following conditions were used for the runs: flow rate 0.6 mL/min, sampler temperature: 20° C., column oven temperature 25° C., injection volume 10 μL, gradient 5-95% MeOH (and H2O (+0.1% HCOOH)) in 10 min. The compound was first measured directly after the preparation of the compound (after 2-3 min) and thereafter every 60 min. The decrease of the compound was calculated by the compound peak areas relatively to the peak area directly after the preparation of the compound. […] At pH=6.3 the hydrolysis is below 0.5%/h, whereas at pH=7.4 the hydrolysis is quite fast with ˜2.6%/h (see FIG. 5). Corresponding results can be obtained when the further compounds of the invention are tested.

[3] = Balb/c mice, twice a week, dose equimolar to 3 mg/kg cisplatin
[4] = male Balb/c mice, dose equimolar to 12 mg/kg carboplatin
[5] = Balb/c mice, i.v. twice a week, equimolar to 9 mg/kg oxaliplatin

Compound: CC(=O)[O][Pt]([Cl])([Cl])[O]C(=O)NCCN1C(=O)C=CC1=O.N.N [KP2372, (OC-6-44)-Acetatodiamminedichlorido[2-(2,5-dioxo-2,5-dihydro-1H-pyrrol-1-yl)ethylcarbamato]platinum(IV)]
- anticancer activity against CT-26 tumors (tumor growth) (CT-26 colon cancer cells; [3]): only marginally active; also recorded: widely inactive

Compound: CC(=O)[O][Pt]([Cl])([Cl])[O]C(=O)NCCCCCN1C(=O)C=CC1=O.N.N [KP2540, (OC-6-44)-Acetatodiamminedichlorido[5-(2,5-dioxo-2,5-dihydro-1H-pyrrol-1-yl)pentylcarbamato]platinum(IV)]
- anticancer activity against CT-26 tumors (tumor growth) (CT-26 colon cancer cells; [3]): only marginally active; also recorded: widely inactive

Compound: CC(=O)[O][Pt]1([NH2])([NH2])([O]C(=O)NCCN2C(=O)C=CC2=O)[O]C(=O)C2(CCC2)C(=O)[O]1 [KP2551, (OC-6-34)-Acetatodiamminecyclobutane-1,1-dicarboxylato[2-(2,5-dioxo-2,5-dihydro-1H-pyrrol-1-yl)ethylcarbamato]platinum(IV)]
- anticancer activity against CT-26 tumors (tumor growth) (CT-26 colon cancer cells; [4]): distinctly more active than all other tested compounds; also recorded: very strong anticancer activity

Compound: [NH2][Pt]1([NH2])[O]C(=O)C2(CCC2)C(=O)[O]1 [carboplatin, (SP-4-2)-Diamminecyclobutane-1,1-dicarboxylatoplatinum(II), reference compound]
- anticancer activity against CT-26 tumors (tumor growth) (CT-26 colon cancer cells; [4]): no impact

Compound: O=C1[O][Pt]2([NH][C@@H]3CCCC[C@H]3[NH]2)[O]C1=O [oxaliplatin, reference compound]
- treated animals with life prolongation ([1]; i.p. day 1, 5, 9, 9 mg/kg oxaliplatin): ~50%

Compound: (OC-6-34)-Acetato[(1R,2R)-cyclohexane-1,2-diamine]oxalato[2-(2,5-dioxo-2,5-dihydro-1H-pyrrol-1-yl)ethylcarbamato]platinum(IV) [KP2299]
- anticancer activity against B16 tumors (B16 melanoma cells): exceptionally increased anticancer activity
- aqueous solubility (Aqueous solubility): highly increased
- stability (decrease of the compound peak area) ([2]; pH=4.3, 100 mM sodium acetate buffer): stable
- stability (decrease of the compound peak area) ([2]; pH=5.3, 100 mM sodium acetate buffer): stable
- hydrolysis ([2]; pH=6.3, 100 mM sodium acetate buffer): below 0.5 %/h
- hydrolysis ([2]; pH=7.4, 100 mM phosphate buffer): ~2.6 %/h
- anti-leukemic activity (survival) ([1]; i.p. day 1, 5, 9, equimolar to 9 mg/kg oxaliplatin): distinct anti-leukemic activity
- anticancer activity against CT-26 tumors (tumor growth) (CT-26 colon cancer cells; [5]): distinctly more active than all other tested compounds; also recorded: distinctly higher anticancer activity; also recorded: exceptionally increased anticancer activity
- complete remission (CT-26 colon cancer cells; CT-26, female mice, equimolar to 9 mg/kg oxaliplatin i.v. twice a week): 3 out of 4

Compound: (OC-6-34)-[(1R,2R)-Cyclohexane-1,2-diamine]methoxidooxalato[2-(2,5-dioxo-2,5-dihydro-1H-pyrrol-1-yl)ethylcarbamato]platinum(IV) [KP2260]
- anticancer activity against CT-26 tumors (tumor growth) (CT-26 colon cancer cells; [5]): far less or at least later active

Compound: (OC-6-44)-Acetato[(1R,2R)-cyclohexane-1,2-diamine]oxalato[4-(2,5-dioxo-2,5-dihydro-1H-pyrrol-1-yl)butanoato]platinum(IV) [KP2541]
- anticancer activity against CT-26 tumors (tumor growth) (CT-26 colon cancer cells; [5]): far less or at least later active
